Test: gradient 5% acetonitrile 3 min, to 50% in 2 min, to 85% in 15 min, held 3 min, 100 µL/min
Settings: column: Zorbax Extend-C18 2.1 x 50 mm; eluents: water / acetonitrile, 0.1% formic acid
Method in brief: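 Retention times come from adduct peaks that were picked computationally and then checked by hand. The standards, pure and pooled in mixtures of ~100 molecules, were run on a Zorbax Extend-C18 column (2.1 × 50 mm, 1.8 μm) at 100 μL/min with water and acetonitrile, each with 0.1% formic acid. Detection was by quadrupole time-of-flight mass spectrometry in positive and negative ionization mode, with a dead volume of 40 μL and a dwell volume of 900 μL.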

Row | RP-LC retention time | Structure (SMILES)
1 | 770 s | CC(=O)c1cccc(S(=O)(=O)NC(C)Cc2ccco2)c1 (stereo not drawn)
2 | 645 s | O=C(CCSCc1ccccc1F)N1CCN(c2ccccn2)CC1
3 | 574 s | O=C(NCCCN1CCCC1)c1ccc(-c2ccc(N3CCSCC3)nc2)cc1
4 | 673 s | C#CCn1cnc2c(oc3ccccc32)c1=O
5 | 632 s | COc1ccc(-c2nc(C)cc(C)c2CNC(=O)c2ccc3c(c2)OCO3)cc1
6 | 843 s | Cc1ccccc1-c1nnc(CSc2nnc(NC(=O)C(C)C)s2)o1
7 | 728 s | Cc1cc(C(=O)NCCCC(=O)Nc2cccc3cccnc23)c(C)o1
8 | 925 s | COc1cccc(CNC(=O)Cc2csc3nc(-c4cccc(Br)c4)cn23)c1
9 | 841 s | Cc1cc(SCC(=O)Nc2nc(-c3ccccc3)cs2)nc(C)n1
10 | 622 s | COc1ccc2c(C)c(CC(=O)N3CCC(C(N)=O)CC3)c(=O)oc2c1OC
11 | 585 s | COCCN(C)C(=O)c1cn(C2CN(S(=O)(=O)c3cn(C)cn3)C2)nn1
12 | 597 s | COC(=O)c1c(C)[nH]c(C(=O)N2CCCC(C(=O)NCc3ccc(N(C)C)cc3)C2)c1C (stereo not drawn)
13 | 789 s | CCCn1nc(CNC(=O)c2ccoc2)c2ccccc21
14 | 576 s | CCOc1ccc(N2C(=O)Nc3ccccc3C2(O)C(=O)NCCCN2CCCCC2)cc1 (stereo not drawn)
15 | 889 s | Cc1ccc(C(=O)N2CCCC2COc2ccc(C(=O)NC(C)C)cc2)cc1F (stereo not drawn)
16 | 856 s | OC(COc1cccc2ccccc12)CN1CCN(c2ccc(Cl)cc2)CC1 (stereo not drawn)
17 | 988 s | CCCCN1C(=O)C(NC(=O)c2cccc(OC)c2)(C(F)(F)F)C(C(=O)OC)=C1C (stereo not drawn)
18 | 691 s | CCNC(=O)c1ccc(-c2ccc3c(c2)CCN3C(C)=O)cc1
19 | 640 s | CCOc1ccc(C(=O)NC(C)C(=O)Nc2nc3ccccc3[nH]2)cc1 (stereo not drawn)
20 | 689 s | Cc1nc(N2CCCCC2)cc(N2CCN(C(=O)c3ccc(Br)o3)CC2)n1
21 | 624 s | CCOc1cc(-c2ccc(F)cc2)nc2ccc(C(=O)N3CCN(c4ccccn4)CC3)cc12
22 | 1210 s | CCOC(=O)c1cccc(NC(=O)N2CCc3cn(C)c4cccc(c34)C2)c1

Row | RP-LC retention time | Structure (SMILES)
23 | 1350 s | Cc1ccc(C)c(-c2csc(NC(=O)c3sc(-c4ccccc4)nc3C)n2)c1
24 | 881 s | CN(C)c1ccc(-c2nc3cnc(Br)cn3c2Nc2ccc3c(c2)OCCO3)cc1
25 | 800 s | CN1c2cc(F)ccc2C(=O)NC12CCN(C(=O)c1cccc(Cl)c1)CC2
26 | 594 s | CC(C)CN(C1CCOCC1)C1CN(C(=O)Nc2ccccc2)C1
27 | 950 s | Cc1ccc(C)c(CNC(=O)c2nnc(-c3ccc(S(=O)(=O)N(C)C)cc3)o2)c1
28 | 818 s | Cc1ccccc1N1C(=O)CN(S(C)(=O)=O)CC1(C)C(=O)NCc1ccc(F)cc1 (stereo not drawn)
29 | 936 s | Cc1ccc(CNC(=O)C2(C)CCN(C(=O)Nc3cc(Cl)ccc3C)CC2)cc1
30 | 1070 s | CCOc1cccc(-c2noc(Cc3nnc(-c4cccc(F)c4)o3)n2)c1
31 | 793 s | COc1ccc(S(=O)(=O)N2CCC(c3noc(-c4cccnc4)n3)C2)cc1 (stereo not drawn)
32 | 756 s | CCc1ccccc1NS(=O)(=O)c1ccc2c(c1)CCCC(=O)N2
33 | 745 s | CCOC(=O)C1CCN(Cc2nc(-c3ccc(N4CCC(C)CC4)nc3)no2)CC1
34 | 628 s | CCCNc1cc(N2CCCC(CCC(=O)N3CCN(C(=O)c4ccco4)CC3)C2)ncn1 (stereo not drawn)
35 | 559 s | CC(=O)N1CCC(n2c(C)nc(C(=O)N3CCCCC3)c2C)CC1
36 | 579 s | CCN1CCN(CCNC(=O)c2ccc3c(c2)N(C)C(=O)C2CCCCN32)CC1 (stereo not drawn)
37 | 932 s | O=C(NCc1ccc(-c2noc(-c3cc(F)ccc3F)n2)s1)C1CC1
38 | 752 s | O=C(CN1CCN(Cc2ccccc2)C(=O)C1=O)N1CCN(c2ccccc2F)CC1
39 | 1090 s | COc1ccc(CN2C=C(C(=O)OCc3nc(-c4cccs4)no3)C(C)=NS2(=O)=O)cc1
40 | 687 s | Cc1ccc(NC(=O)CC2COc3ccccc3NC2=O)cc1C (stereo not drawn)
41 | 807 s | Cc1nnc(-c2ccc3ccn(CC(=O)NCCCc4ccccc4)c3c2)o1
42 | 654 s | Cc1ccc(Cn2cc(-c3ccncc3)cc2C(=O)NCC2CCCO2)cc1 (stereo not drawn)
43 | 786 s | CC(C)c1ccc(CNC(=O)[C@@]23CCCC[C@H]2N(C)C(=O)CC3)cc1
44 | 625 s | O=C(Nc1nccs1)C1CCN(C(=O)c2cccc(-n3cnnn3)c2)CC1

Row | RP-LC retention time | Structure (SMILES)
45 | 875 s | CC1CCc2nn(CC(=O)Nc3ccc(F)cc3F)cc2C1 (stereo not drawn)
46 | 1080 s | CCn1c(=O)c(N2CCCC(C(=O)NCc3cccc(Br)c3)C2)nc2ccccc21 (stereo not drawn)
47 | 625 s | CCOCCCNC(=O)C1CCCN(c2nc3ccc(Br)cc3[nH]2)C1 (stereo not drawn)
48 | 748 s | CCOC(=O)c1cccc(Nc2c(-c3cccc(O)c3)nc3cnccn23)c1
49 | 737 s | COc1ccccc1CNC(=O)C1CCCN(c2nn3c(=O)c4c(nc3s2)CCCC4)C1 (stereo not drawn)
50 | 594 s | CCOC(=O)c1ccc(NC(=O)Cn2cnc3ccccc32)cc1
51 | 954 s | CCOCCCNC(=O)N1CCCCCC1c1cccc(C)c1 (stereo not drawn)
52 | 960 s | CN(C)S(=O)(=O)c1ccc2c(c1)N(CC(=O)N1CCc3ccccc31)C(=O)C1CCCCN21 (stereo not drawn)
53 | 848 s | O=C(NCCc1cccs1)C1CCCN(C(=O)c2cccn2-c2cccnc2)C1 (stereo not drawn)
54 | 802 s | CCOC(=O)C1CCN(C(=O)Cn2c(=O)c3cccn3c3ccc(F)cc32)CC1
55 | 860 s | CC(C)NC(=O)c1ccc(OCC2CCN(C(=O)Cc3ccc(F)cc3)CC2)cc1
56 | 1000 s | COc1cc(F)ccc1-c1ccnc2nc(C3CCCCC3)nn12
57 | 848 s | CCOC(=O)c1sc(NC(C)=O)nc1-c1ccccc1
58 | 1250 s | Cc1ccc(C(=O)NC2(c3nc(-c4ccccc4)no3)CCCCC2)cc1C
59 | 654 s | CCOC(=O)c1ccc(NC(=O)COc2cccc3ccc(N4CCOCC4)nc23)cc1
60 | 707 s | COc1cc(NC(=O)C2CCN(S(=O)(=O)c3cn(C(C)C)cn3)CC2)cc(OC)c1OC
61 | 591 s | CC(C)NC(=O)C1CCC(=O)N1C1CCN(C(=O)C2CCCCC2)CC1 (stereo not drawn)
62 | 806 s | CN1C(=O)c2cc(C(=O)NCCc3c[nH]c4ccccc34)nn2CC1(C)C(=O)NC1CCCCC1 (stereo not drawn)
63 | 1140 s | CCC(c1cccs1)N1C(=O)[C@H]2CN(S(=O)(=O)c3ccc(C(C)C)cc3)C[C@H]2C1=O (stereo partly drawn)
64 | 661 s | CC1CCCN(CC2CCN(C(=O)Nc3ccc(Br)cc3)CC2)C1 (stereo not drawn)
65 | 681 s | COc1ccccc1CNC(=O)C1CCN(C(=O)c2nn(C)c3c2CN(C(=O)C(C)C)CC3)CC1
66 | 614 s | O=C(c1cc(-c2ccncc2)n[nH]1)N1CCC(C(=O)N2CCc3ccccc32)CC1

Row | RP-LC retention time | Structure (SMILES)
67 | 586 s | Cc1ccc(F)cc1S(=O)(=O)N1CCN(c2nc3ccncc3n(C)c2=O)CC1
68 | 604 s | Cc1scc2nc(C3CCC3)nc(N3CCC(C(=O)NCc4ccc(N(C)C)cc4)CC3)c12
69 | 1280 s | Cc1ccccc1-c1noc(C2CCCN2S(=O)(=O)c2cccc(Cl)c2C)n1 (stereo not drawn)
70 | 874 s | CCOc1ccc(-n2nnnc2CN2CCN(S(=O)(=O)c3cccs3)CC2)cc1
71 | 803 s | Cc1cc2c(c(=O)n(-c3ccccc3)c(=O)n2CC(=O)Nc2ccccc2F)n1C
72 | 1000 s | Cc1ccc(NC(=O)c2sc(-c3cn(C)c4ncccc34)nc2C)cc1F
73 | 1030 s | Cc1ccc(S(=O)(=O)N2CCC(C)(C(=O)NCc3ccccc3C)CC2)cc1C
74 | 1040 s | O=C(Nc1ccccc1-c1nc2ccccc2[nH]1)c1cccc([N+](=O)[O-])c1
75 | 646 s | CCC(C)NC(=O)N1CCN(Cc2nc3cccnc3n2-c2cccc(C)c2)CC1 (stereo not drawn)
76 | 686 s | Cc1cc(C)nc(NS(=O)(=O)c2ccc(NC(=O)NC3CCCCC3)cc2)n1
77 | 922 s | COc1ccccc1NC(=O)N1CCc2nc(-c3ccccc3)ncc2C1
78 | 1010 s | O=C(Nc1nnc(-c2cc(Cl)sc2Cl)o1)c1cccc(C(F)(F)F)c1
79 | 712 s | CC(C(=O)Nc1ccc2c(c1)OCCO2)n1cnc2nc3c(cc2c1=O)CCCC3 (stereo not drawn)
80 | 1030 s | CCOCCCNC(=O)c1cn(CC)nc1S(=O)(=O)N1CCN(c2cccc(Cl)c2)CC1
81 | 670 s | CCOc1ccc(NC(=O)NCC(c2cccnc2)c2c[nH]c3ccccc23)cc1 (stereo not drawn)
82 | 596 s | O=C(CSc1nnc(-c2ccncc2)o1)NCc1ccc2c(c1)OCO2
83 | 962 s | CCN1CCCc2cc(C(=O)NCc3cccc(OC)c3)sc21
84 | 609 s | O=C(CCn1c(N2CCCC2)nc2ccsc2c1=O)N1CCN(c2ccccn2)CC1
85 | 544 s | O=C([C@@H]1C[C@H](Oc2cccnc2)CN1C(=O)c1ccc2ncccc2c1)N1CCCC1
86 | 850 s | CCC(C)NC(=O)c1n[nH]c2c1CCCCCC2 (stereo not drawn)
87 | 1130 s | COC(=O)c1ccc2c(=O)n(-c3cccc(C)c3)c(N3CCSC3)nc2c1
88 | 939 s | Cc1ccc(C2=NC3(CCN(C(=O)c4ccc5c(c4)OCO5)CC3)ON2)cc1

Source: the METLIN SMRT retention time set (Domingo-Almenara et al. 2019)
